Assays:
[1] = tested on: mouse fibroblasts (NIH3T3 cell line); assay: Cell viability assay (WST-1), NIH3T3 fibroblasts; assay type: cell-based; settings: FIG. 7A
Protocol: Murine NIH3T3 fibroblasts and human lung epithelial cells (A549 cells) were purchased from the Bioresource Collection and Research Center (Hsinchu, Taiwan). Cells were cultured in Dulbecco's modified eagle medium (DMEM) containing 10% fetal bovine serum (FBS), 100 μg/mL penicillin, 100 μg/mL streptomycin. Cells were cultured at 37° C. in a humidified atmosphere of 5% CO2 and passaged every 4 to 5 days at 1:4 ratios.
Murine NIH3T3 fibroblasts were seeded into 96-well plates (1×10^3 cells/well). To measure the cell viability and the cell proliferation, 10% WST-1 (cell proliferation reagent WST-1, Roche) was added to each well and reacted for 3 hours. The reaction was catalyzed by mitochondrial reductase in active cells and the optical density (OD) was calculated by measuring the absorbance at 450 nm via a Bio-Rad ELISA analyzer.

[2] = tested on: bleomycin-induced pulmonary fibrosis in mice; assay: Bleomycin-induced pulmonary fibrosis in mice; assay type: in vivo
Protocol: Male C57BL/6J mice (6-8 weeks of age) were obtained from the National Laboratory Animal Center (Taipei, Taiwan). All experimental procedures using these mice were performed according to protocols approved by the Institutional Laboratory Animal Care and Use Committee of Cardinal Tien Hospital. Each mouse was housed in cages (IVC; individual ventilation cage), and given daily photoperiod for 12 hours. Room temperature was maintained at 22-25° C., and humidity was maintained at 60 to 70%. Ventilation rate was remained at 16-18 times/hour. Food and drinking water (Altromin 1326 mice feed, Altromin, Germany) was freely given. All operations were executed in accordance with the standards of animal experimental animal operation of law. Management and feeding of animals were in compliant with guidance for care and use of laboratory (NRC 1996) rule approach implementation.
Pulmonary fibrosis was induced using bleomycin sulfate in male C57BL/6J mice (FIG. 1). The mice were intraperitoneally injected (IP) under anesthesia with Avertin (240 mg/Kg). On day 0 (n=20), a single dose of bleomycin (BLM) (1 mg=1000 IU, clinical level, Bleomycine Bellon, Sanofi-Aventis, France) was received in the mice (3.5 mg/kg) via intranasal instillation. The mice in the control group (n=10) were given saline only. On day 14 after intranasal BLM instillation, BLM treated mice were randomized into two groups receiving vehicle or 1-[4-chloro-3-(trifluoromethyl)phenyl]-3-[3-(4-cyanophenoxy)phenyl]urea until the end of the experiment. From day 14 to day 28, mice were administered intraperitoneally with 7.5 mg/kg/day of 1-[4-chloro-3-(trifluoromethyl)phenyl]-3-[3-(4-cyanophenoxy)phenyl]urea daily at a dose of 10 mL/kg body weight. The experimental time was 28 days and the 1-[4-chloro-3-(trifluoromethyl)phenyl]-3-[3-(4-cyanophenoxy)phenyl]urea compound was administered within 14 to 28 days.
The paraffin embedded tissue array blocks were cut into 4-μm-thick sections for H&E staining. For each case, carcinoma type, cell differentiation, growth pattern, tumor cell nuclear morphology, metaplasia, calcification, necrosis, mitosis count, invasion status and other specific differentiations were re-checked by two pathologists Immunohistochemical (IHC) staining was performed using a Ventana BenchMark XT automated stainer (Ventana, Tucson, Ariz.). Briefly, 4-μm-thick sections were cut consecutively from formalin-fixed, paraffin-embedded tissue. These sections were then mounted on silanized slides and allowed to dry overnight at 37° C. After deparaffinization and rehydration, the slides were incubated with 3% hydrogen peroxide solution for 5 minutes. After being washed with the supplied buffer, the tissue sections were repaired for 40 minutes with ethylenediamine tetraacetic acid.
Hydroxyproline analysis was performed using a hydroxyproline test kit following the manufacturer's instructions (Cell BioLabs, Inc., USA). Lung tissue was hydrolyzed in 12N HCl at 120° C. for 3 hours, and then washed and suspended in H2O. The tissue suspension was then mixed with chloramine-T at room temperature for 30 minutes. Then Ehrlich's reagent was added and reacted at 60° C. for 90 minutes. After that, the absorbance at 540 nm was measured.
Mice lung collagen was measured in lung homogenate using a Sircol assay (Biocolor, UK) following the manufacturer's instructions. Briefly, lung tissue homogenates were mixed with Sircol dye and centrifuged. The precipitate was resuspended in NaOH and the absorbance at 550 nm was measured. The absorbance obtained is directly proportional to the concentration of the recently synthesized collagen.
Whole-cell extracts were obtained via RIPA buffer (Millipore, USA) and protein concentrations were quantified via a BCA protein assay kit (Thermo Fisher Scientific, USA). 20 or 25 μg of protein was added to various percentages of SDS-sodium dodecyl sulfate-acrylamide gel and blotted onto a polyvinylidene fluoride (PVDF) membrane. […]

[3] = tested on: TGF-β, PDGFR and STAT3 pathways in LX2 cells; assay: Western blot of signalling proteins in LX2 cells; assay type: cell-based, human
Protocol: Rat immortal hepatic stellate cell line HSC-T6 and LX2 human hepatic stellate cell line were provided by Professor Scott Friedman of Mount Sinai Hospital in New York, USA. The primary mouse HSCs were obtained via the way: after intubating the hepatic portal vein of the mouse, the cells were perfused with […] and ethylene glycol bis-aminoethyl ether tetraacetic acid (EGTA) buffer in situ, and then collagenase was injected to digest the liver tissue, and then the primary mouse HSCs were isolated by Histodnz gradient. HSC-T6 cells were cultured in Waymouth medium; LX2 cells and primary mouse HSCs were cultured in Dulbecco's Modified Eagle Medium (DMEM) containing 10% fetal bovine serum (FBS), 100 μg/mL penicillin, 100 μg/mL streptomycin, and 2 mM L-glutamine HSC-T6 cells, LX2 cells and primary mouse HSCs were cultured in a humidified incubator containing 5% carbon dioxide at 37° C. After adding the FBS, the resting HSC is started. […] Whole-cell extracts were obtained via RIPA buffer (Millipore, USA) and protein concentrations were quantified via a BCA protein assay kit (Thermo Fisher Scientific, USA). 20 or 25 μg of protein was added to various percentages of SDS-sodium dodecyl sulfate-acrylamide gel and blotted onto a polyvinylidene fluoride (PVDF) membrane. […] Proteins were detected by Immobilon Western Chemiluminescent HRP substrate (Millipore, USA) or ECL detection system (UVP Corporation, USA). […] Plasmids encoding the human wild-type SHP-1 and SHP-1 mutant, in which the N-SH2 domain was […] was changed into an […]) were cloned into the pCMV6-entry vector with myc-tag. These mutants were confirmed through DNA sequencing. […] (Chicago, Ill., USA).

[4] = Western blot, bleomycin model after treatment, FIG. 6

## N#Cc1ccc(Oc2cccc(NC(=O)Nc3ccc(Cl)c(C(F)(F)F)c3)c2)cc1 [1-[4-chloro-3-(trifluoromethyl)phenyl]-3-[3-(4-cyanophenoxy)phenyl]urea]
[1]
  survival rate of mouse fibroblasts: reduced the survival rate of mouse fibroblasts (NIH3T3 cell line) in a dose-dependent manner
[2]; 7.5 mg/kg dose, daily, day 14 to day 28 after bleomycin
  tolerability (drug-related adverse events): well tolerated
[2]; 7.5 mg/kg/day, day 14 to 28, FIG. 3
  fibrin deposition (Masson's trichrome staining positive area): significantly reduced
[2]; 7.5 mg/kg/day, day 14 to 28, versus BLM group, FIG. 2
  pathological changes of lung sections (hematoxylin-eosin staining): significantly improved
[2]; Sircol assay, 7.5 mg/kg/day, day 14 to 28, FIG. 5
  collagen content of mice lung: improved the accumulation of collagen
[2]; [4]
  P-STAT3: decreased
  amount of fibronectin: decreased
  expression level of E-cadherin: increased
[2]; lung tissue, 7.5 mg/kg/day, day 14 to 28, FIG. 4
  decrease of hydroxyproline (Hyp) content compared with the BLM group: about 22%
[3]; 5 μM, 24 hours, FIG. 17D, 17E
  p-STAT3, ectopic expression of the vector control and wild-type SHP-1: downregulated
[3]; 10 μM for 4 hours, then PDGF-BB 100 ng/mL 10 minutes, FIG. 14E
  p-PDGFR and p-Akt in the PDGFR pathway: downregulated
[3]; 10 μM for 4 hours, then TGF-β1 10 ng/mL 20 minutes, FIG. 14D
  p-Smad2 and p-Smad3 of the TGF-β pathway: downregulated
[3]; FIG. 15A
  downregulation of p-STAT3 and cyclin D1, compared with sorafenib: more significant dose-escalation effects on the downregulation

Reference: patent US10993923B2, “Method for ameliorating fibrosis using 1-[4-chloro-3-(trifluoromethyl)phenyl]-3-[3-(4-cyanophenoxy)phenyl]urea” (priority 2016, dated 2021)
